One block for each molecule: values may come before it.
Legend:
Format in all cases: cell-based
FAK (PTK2) = biological target: T1, FAK (PTK2) (Homo sapiens, UniProt Q05397); assay: Western blot, off target degradation of PTK2 in H3122 cells
T1 construct: endogenous in cells; host or cells: H3122
Description: (§1) Blotting: Cells were washed with PBS before being lysed with Cell Lysis Buffer (Cell Signaling Technology®) supplemented with protease and phosphatase inhibitor cocktails (Roche™) at 4° C. for 15 minutes. The cell lysate was vortexed every 5 minutes over a 30-minute period before being centrifuged at 14,000×g for 20 min at 4° C. Protein in cell lysate was quantified by BCA assay (Pierce™). Primary antibodies used in this study include ALK (Cell Signaling Technology®, D5F3), Aurora A (Cell Signaling Technology®, 1F8), FAK (PTK2) (Cell Signaling Technology®, #3285), and GAPDH (Cell Signaling Technology®, 14C10). Blot quantification was performed using Image Studio™ 4.0 software, normalizing to loading control (GAPDH).

ALK = biological target: T2, ALK (Homo sapiens, UniProt Q9UM73); assay: Western blot, degradation of ALK in H3122 cells; conditions: for degradation of ALK: 16-hour treatment, 0.01-1 μM
T2 construct: EML4 N-terminal fusion partner (human entry Q9HC35); endogenous in cells; host or cells: H3122; the other entry of the earlier key: EML4 (Q9HC35, Echinoderm microtubule-associated protein-like 4)
Description: as §1

[1] = system: EML4-ALK with secondary mutations L1196M, C1156Y, or G1202R; assay: CellTiter-Glo cell viability, ALK-positive Ba/F3 cells with EML4-ALK secondary mutations; conditions: 72 hours, FIG. 1A
Description: (§2) CellTiter-Glo®: Cell viability was evaluated using the CellTiter-Glo® Luminescent Cell Viability Assay (Promega™) following the manufacturer's standards. 12-point dose titrations were tested in triplicate from 10000 nM to 0.056 nM over 72 hours. Anti-proliferative best fit EC50 values with 95% CI are shown as calculated by Graphpad Prism™ 7 software.

H3122 cells = assay: CellTiter-Glo cell viability, anti-proliferative activity in H3122 cells; conditions: 72 hours, FIG. 1A
Description: as §2

Aurora A = biological target: T3, Aurora A (Homo sapiens, UniProt O14965); assay: Western blot, off target degradation of Aurora A in H3122 cells; conditions: 16-hour treatment, 0.01-1 μM
T3 construct: ALK and aurora A degradation in H3122 cells; endogenous in cells; host or cells: H3122
T3 sequence (O14965 1-403): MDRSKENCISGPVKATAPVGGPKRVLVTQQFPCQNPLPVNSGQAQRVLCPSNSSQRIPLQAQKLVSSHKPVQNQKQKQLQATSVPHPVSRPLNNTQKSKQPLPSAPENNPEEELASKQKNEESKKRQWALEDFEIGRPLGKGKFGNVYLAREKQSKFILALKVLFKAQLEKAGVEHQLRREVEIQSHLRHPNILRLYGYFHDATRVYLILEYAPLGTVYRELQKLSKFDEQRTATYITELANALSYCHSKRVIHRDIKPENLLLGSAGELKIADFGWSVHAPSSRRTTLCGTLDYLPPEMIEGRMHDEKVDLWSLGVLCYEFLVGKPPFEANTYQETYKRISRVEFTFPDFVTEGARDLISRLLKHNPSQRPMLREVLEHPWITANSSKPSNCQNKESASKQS
Description: as §1

[2] = system: EML4-ALK expressing cell lines; assay: CellTiter-Glo cell viability, EML4-ALK expressing cell lines; conditions: 72 hours, FIG. 2A / 3A
Description: as §2
The experimental protocol was as in Example 15.

T2 sequence (Q9UM73 with tags, fused parts or gaps): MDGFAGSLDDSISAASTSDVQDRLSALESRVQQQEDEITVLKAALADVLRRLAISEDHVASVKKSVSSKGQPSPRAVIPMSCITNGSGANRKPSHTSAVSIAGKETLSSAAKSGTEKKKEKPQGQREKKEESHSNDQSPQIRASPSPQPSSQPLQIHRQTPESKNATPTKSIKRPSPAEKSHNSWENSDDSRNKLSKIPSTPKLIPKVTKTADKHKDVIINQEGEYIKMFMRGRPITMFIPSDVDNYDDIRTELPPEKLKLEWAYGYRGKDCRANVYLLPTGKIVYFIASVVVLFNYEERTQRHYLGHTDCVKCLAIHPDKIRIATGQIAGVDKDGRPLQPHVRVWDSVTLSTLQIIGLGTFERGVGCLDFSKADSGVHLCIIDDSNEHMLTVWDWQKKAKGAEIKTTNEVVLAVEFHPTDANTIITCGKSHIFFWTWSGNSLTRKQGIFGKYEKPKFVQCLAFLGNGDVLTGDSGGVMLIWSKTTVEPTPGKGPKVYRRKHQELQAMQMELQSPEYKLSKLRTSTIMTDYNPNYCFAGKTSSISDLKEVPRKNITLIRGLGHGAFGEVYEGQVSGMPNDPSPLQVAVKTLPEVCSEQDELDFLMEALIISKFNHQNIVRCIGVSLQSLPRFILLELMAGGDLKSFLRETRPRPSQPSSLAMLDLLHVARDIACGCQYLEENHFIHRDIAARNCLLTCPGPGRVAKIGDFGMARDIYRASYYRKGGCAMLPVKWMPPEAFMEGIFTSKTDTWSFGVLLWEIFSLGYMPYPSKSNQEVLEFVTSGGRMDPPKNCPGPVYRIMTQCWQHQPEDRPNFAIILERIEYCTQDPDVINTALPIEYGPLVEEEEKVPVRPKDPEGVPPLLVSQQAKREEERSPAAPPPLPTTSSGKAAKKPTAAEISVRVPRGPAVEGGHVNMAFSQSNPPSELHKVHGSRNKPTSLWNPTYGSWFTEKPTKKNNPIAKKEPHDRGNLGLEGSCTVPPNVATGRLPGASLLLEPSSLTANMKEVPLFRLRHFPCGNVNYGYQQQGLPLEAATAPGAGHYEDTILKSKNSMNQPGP
T1 sequence (Q05397 whole entry): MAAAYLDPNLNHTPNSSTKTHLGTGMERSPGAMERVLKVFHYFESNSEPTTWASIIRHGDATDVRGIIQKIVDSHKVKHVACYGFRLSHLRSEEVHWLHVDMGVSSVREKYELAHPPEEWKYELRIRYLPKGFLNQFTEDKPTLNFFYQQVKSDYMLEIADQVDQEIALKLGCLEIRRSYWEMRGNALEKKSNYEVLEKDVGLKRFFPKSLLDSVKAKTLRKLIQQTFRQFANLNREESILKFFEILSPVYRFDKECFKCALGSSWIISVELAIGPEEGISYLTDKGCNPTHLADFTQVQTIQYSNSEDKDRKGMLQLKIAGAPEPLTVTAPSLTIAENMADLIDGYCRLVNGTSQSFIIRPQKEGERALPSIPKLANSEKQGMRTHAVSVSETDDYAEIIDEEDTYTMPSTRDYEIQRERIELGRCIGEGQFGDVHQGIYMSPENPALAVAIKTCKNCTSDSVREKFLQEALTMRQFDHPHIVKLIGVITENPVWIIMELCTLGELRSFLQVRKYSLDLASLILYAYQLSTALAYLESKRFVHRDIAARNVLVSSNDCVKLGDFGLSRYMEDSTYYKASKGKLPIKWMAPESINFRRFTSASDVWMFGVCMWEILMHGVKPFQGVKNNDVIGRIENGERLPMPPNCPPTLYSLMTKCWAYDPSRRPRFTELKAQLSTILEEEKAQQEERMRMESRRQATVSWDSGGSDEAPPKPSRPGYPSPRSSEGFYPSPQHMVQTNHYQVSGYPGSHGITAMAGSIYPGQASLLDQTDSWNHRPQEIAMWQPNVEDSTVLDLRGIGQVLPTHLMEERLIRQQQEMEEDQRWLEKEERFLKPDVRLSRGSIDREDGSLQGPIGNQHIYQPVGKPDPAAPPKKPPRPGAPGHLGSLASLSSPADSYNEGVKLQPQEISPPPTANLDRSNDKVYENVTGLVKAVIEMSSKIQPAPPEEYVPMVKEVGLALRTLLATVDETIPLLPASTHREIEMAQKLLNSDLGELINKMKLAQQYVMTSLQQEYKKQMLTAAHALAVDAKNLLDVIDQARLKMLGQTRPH

time at which ALK degradation is seen (ALK; time course, 100 nM): around 4 hours
time of maximum ALK degradation (ALK; time course, 100 nM): around 8 hours
Compound: Cc1cc(Nc2ncc(Cl)c(Nc3ccccc3S(=O)(=O)C(C)C)n2)c(OC(C)C)cc1C1CCN(CCOCCOCCNC(=O)CNc2cccc3c2C(=O)N(C2CCC(=O)NC2=O)C3=O)CC1 (stereo not shown) [Compound 12, N-(2-(2-(2-(4-(4-((5-Chloro-4-((2-(isopropylsulfonyl)phenyl)-amino)pyrimidin-2-yl)amino)-5-isopropoxy-2-methylphenyl)-piperidin-1yl)ethoxy)ethoxy)ethyl)-2-((2-(2,6-dioxopiperidin-3-yl)-1,3-dioxoisoindolin-4-yl)amino)acetamide]
off target degradation of PTK2 (FAK (PTK2); time course, 100 nM): off target degradation activity against PTK2 that was seen

off target degradation of PTK2 (FAK (PTK2); 16-hour treatment, 0.01-1 μM): very low
Compound: CCc1cc2c(cc1N1CCC(N3CCN(C(=O)CCOCCOCCOCCOCCNc4cccc5c4C(=O)N(C4CCC(=O)NC4=O)C5=O)CC3)CC1)C(C)(C)c1[nH]c3cc(C#N)ccc3c1C2=O (stereo not shown) [Compound 1, 8-(4-(4-(1-((2-(2,6-dioxopiperidin-3-yl)-1,3-dioxoisoindolin-4-yl)amino)-3,6,9,12-tetraoxapentadecan-15-oyl)piperazin-1-yl)piperidin-1-yl)-9-ethyl-6,6-dimethyl-11-oxo-6,11-dihydro-5H-benzo[b]carbazole-3-carbonitrile]
activity against EML4-ALK with secondary mutations L1196M, C1156Y, or G1202R [1]: comparable to the parental inhibitor alectinib
anti-proliferative activity in H3122 cells (H3122 cells): comparable to compound 12
off target degradation of Aurora A (Aurora A): Off target degradation of Aurora A was also seen
degradation of ALK (ALK): ability to degrade ALK in a dose dependent manner

degradation of PTK2 (FAK (PTK2); 16-hour treatment, 1 μM): slight degradation of PTK2
Compound: CCc1cc2c(cc1-c1cnn(CC(=O)N(C)CCOCCOCCOCCNc3cccc4c3C(=O)N(C3CCC(=O)NC3=O)C4=O)c1)C(C)(C)c1[nH]c3cc(C#N)ccc3c1C2=O (stereo not shown) [Compound 8, 2-(4-(3-cyano-9-ethyl-6,6-dimethyl-11-oxo-6,11-dihydro-5H-benzo[b]carbazol-8-yl)-1H-pyrazol-1-yl)-N-(2-(2-(2-(2-((2-(2,6-dioxopiperidin-3-yl)-1,3-dioxoisoindolin-4-yl)amino)ethoxy)ethoxy)ethoxy)ethyl)-N-methylacetamide]
off target degradation of Aurora A (Aurora A): off target degradation of aurora A was still seen at higher doses

degradation of ALK (ALK): significant degradation of ALK
Compound: CCc1cc2c(cc1-c1cnn(CC(=O)NCCOCCOCCOCCOCCOCCOCCNc3cccc4c3C(=O)N(C3CCC(=O)NC3=O)C4=O)c1)C(C)(C)c1[nH]c3cc(C#N)ccc3c1C2=O (stereo not shown) [Compound 5, 2-(4-(3-cyano-9-ethyl-6,6-dimethyl-11-oxo-6,11-dihydro-5H-benzo[b]carbazol-8-yl)-1H-pyrazol-1-yl)-N-(20-((2-(2,6-dioxopiperidin-3-yl)-1,3-dioxoisoindolin-4-yl)amino)-3,6,9,12,15,18-hexaoxaicosyl)acetamide]
anti-proliferative activity in EML4-ALK expressing cell lines [2]: slightly better activity than the other members of this group

Compound: CCc1cc2c(cc1-c1cnn(CC(=O)NCCOCCOCCOCCOCCNc3cccc4c3C(=O)N(C3CCC(=O)NC3=O)C4=O)c1)C(C)(C)c1[nH]c3cc(C#N)ccc3c1C2=O (stereo not shown) [Compound 6, 2-(4-(3-cyano-9-ethyl-6,6-dimethyl-11-oxo-6,11-dihydro-5H-benzo[b]carbazol-8-yl)-1H-pyrazol-1-yl)-N-(14-((2-(2,6-dioxopiperidin-3-yl)-1,3-dioxoisoindolin-4-yl)amino)-3,6,9,12-tetraoxatetradecyl)acetamide]
degradation of ALK (ALK): did not degrade ALK to a significant extent

Compound: CCc1cc2c(cc1-c1cnn(CC(=O)NCCOCCOCCNc3cccc4c3C(=O)N(C3CCC(=O)NC3=O)C4=O)c1)C(C)(C)c1[nH]c3cc(C#N)ccc3c1C2=O (stereo not shown) [Compound 4, 2-(4-(3-cyano-9-ethyl-6,6-dimethyl-11-oxo-6,11-dihydro-5H-benzo[b]carbazol-8-yl)-1H-pyrazol-1-yl)-N-(2-(2-(2-((2-(2,6-dioxopiperidin-3-yl)-1,3-dioxoisoindolin-4-yl)amino)ethoxy)ethoxy)ethyl)acetamide]
degradation of ALK (ALK): did not degrade ALK to a significant extent

off target degradation of PTK2 (FAK (PTK2); 16-hour treatment, 0.01-1 μM): very low
Compound: CCc1cc2c(cc1N1CCC(N3CCN(C(=O)CCOCCOCCNc4cccc5c4C(=O)N(C4CCC(=O)NC4=O)C5=O)CC3)CC1)C(C)(C)c1[nH]c3cc(C#N)ccc3c1C2=O (stereo not shown) [Compound 2, 8-(4-(4-(3-(2-(2-((2-(2,6-dioxopiperidin-3-yl)-1,3-dioxoisoindolin-4-yl)amino)ethoxy)ethoxy)propanol)piperazin-1-yl)piperidin-1-yl)-9-ethyl-6,6-dimethyl-11-oxo-6,11-dihydro-5H-benzo[b]carbazole-3-carbonitrile]
activity against EML4-ALK with secondary mutations L1196M, C1156Y, or G1202R [1]: comparable to the parental inhibitor alectinib
anti-proliferative activity in H3122 cells (H3122 cells): comparable to compound 12
off target degradation of Aurora A (Aurora A): Off target degradation of Aurora A was also seen
degradation of ALK (ALK): ability to degrade ALK in a dose dependent manner

— US12233128B2, “Degraders that target ALK and therapeutic uses thereof” (DANA-FARBER CANCER INSTITUTE, INC., priority 2018, dated 2025)
